According to the NIST ThermoML archive (doi:10.1016/j.jct.2007.09.001):
Numbers after ± are expanded uncertainties.

Details: 298.15 K, Calvet calorimetry with correction to 298 K for gas heat capacity

SMILES | molar enthalpy of sublimation (Crystal) | molar enthalpy of vaporization (Liquid)
Cc1cc(C)n(C)n1 [1,3,5-trimethylpyrazole] | 14.7 ± 0.765 kcal/mol | –
Cc1cc[nH]n1 [3-methylpyrazole] | – | 15.8 ± 0.956 kcal/mol
